Legend:
Type in all cases: physicochemical
[1] = Supersaturation / desupersaturation of DMSO solution in FaSSIF-V1; settings: FaSSIF-V1, 37° C.
Method: FIG. 1 is a an illustration of Compound (I) desupersaturation profiles in FaSSIF-V1 when added as DMSO solution at drug loads from 100 to 2000 ppmw
The supersaturation potential of Compound (1) was studied by mixing drug dissolved in 1 mL DMSO into 99 mL FaSSIF-V1 stirred at 37° C. (FIG. 1). At higher drug loads of 500, 1000 or 2000 ppmw (or […]) Compound (1) precipitated practically instantaneously and attained a constant steady state concentration of approx. 20 μg/mL or below within 5 minutes.. At the 90 min final sampling the solids were confirmed to be crystalline Compound (1) by XRPD. At lower drug loads, supersaturation was maintained longer, e.g. approx. 110 μg/mL drug dissolved at 5 min at 200 ppmw drug load and approx. 70 μg/mL drug dissolved till 20 min at 100 ppmw drug load. Situation after desupersaturation was similar as described for higher drug loads.

[2] = Initial stability evaluation of lyophilized solid dispersions (mDSC, UPLC); settings: initial purity of Compound (I) 99.3%
Method: The following example illustrates the initial feasibility assessment of an amorphous solid dispersion formulation. An amorphous solid dispersion (ASD) was initially evaluated as a potential formulation for Compound (1). Solid dispersion screening was performed by lyophilization of solid Compound (1) with a polymer. Miscibility trials of Compound (1) were performed with Kollidon® VA64, HPMC-AS-LF, Eudragit® L100-55, and HPMC 603, by conducting a DSC measurement of the lyophilized material to determine if the material was amorphous or crystalline. […] Kollidon® VA64 at both 50% and 40% drug loading recrystallized after 5 weeks. HPMC-AS-LF and Eudragit® L100-55 remained amorphous under stressed conditions. However, HPMC-AS-LF and Eudragit® L100-55 both have significant impurities after 5 weeks until stressed conditions, according to UPLC analysis.

[3] = Hot melt extrusion (HME) thermal stability; settings: extrusion of compound-polymer mixture at temperatures in excess of 160° C.
From the text: A holt melt extrusion (HME) approach was also attempted.

In the case of `O=C1CC2(CCN(C(=O)NCc3ccc(F)cc3)CC2)Nc2ccc(F)cc21` [Compound (I), 6′-fluoro-N-(4-fluorobenzyl)-4′-oxo-3′,4′-dihydro-1′H-spiro[piperidine-4,2′-quinoline]-1-carboxamide], the drug dissolved ([1]; at 5 min at 200 ppmw drug load) is reported as “approx. 110 μg/mL”, the steady state concentration ([1]; drug loads of 500, 1000 or 2000 ppmw, within 5 minutes) is reported as no more than 20 µg/mL and the supersaturation potential ([1]; overall) is reported as “rather poorly supersaturating”. For the same molecule, the drug dissolved ([1]; till 20 min at 100 ppmw drug load) was “approx. 70 μg/mL”, the “UPLC (%)” value ([2]; 3 weeks 50° C./75% RH) was 99.09% and the “UPLC (%)” value ([2]; 5 weeks 50° C./75% RH) was 99.05%. The “stability on hot melt extrusion” value [3] was “thermal degradation”.
